# Patent publication US9850538B2, “Methods for diagnosing and treating diabetes” (The Board of Trustees of the University of Illinois, priority 2015, dated 2017)
# Like-named read-outs stand apart in the source and are kept apart here.
# Experiments:
# [1] = test system: elastase; experiment: Flow cytometry of intracellular elastase in Ly6C+ and Ly6G+ spleen cells; type: in vivo, mice
# Protocol: It was next investigated whether there was a correlation between the numbers of inflammatory cells expressing elastase and the health status. To this end, spleen cells from diabetic mice and those treated with TSA and cured of diabetes were surface labeled with FITC labeled anti-Ly6C antibody (to stain macrophages) and anti-Ly6G antibody (to stain neutrophils). After staining, cells were fixed, permeabilized and incubated with rabbit antibody against elastase, followed by treatment with TRITC-labeled goat anti-rabbit antibody. Cells were analyzed by flow cytometry for the cell surface expression of Ly6C or Ly6G and these cells were gated and analyzed for the intracellular expression of elastase. […] Similarly, the numbers of Ly6G+ neutrophils co-expressing elastase protein were also diminished in TSA treated and cured mice. Thus, TSA treatment abrogated spontaneously occurring T1D in NOD mice, which was negatively correlated with the frequency of both Ly6C+ macrophages and Ly6G+ neutrophils that co-express elastase.
# [2] = test system: elastase gene; conditions: cited from earlier work
# [3] = test system: spleen cells; experiment: Global gene expression profiling of spleen cells by microarray; type: in vivo, mice
# Protocol: To understand the molecular mechanisms underlying protection against T1D bestowed by TSA treatment in NOD/Ltj mice, transcriptome (gene expression profiling) of spleen cells was analyzed by global gene expression profiling using a microarray approach. To this end, total RNA was isolated from diabetic and cured mice, converted into cRNA and then hybridized to AFFYMETRIX GENECHIP Mouse Genome 430 2.0 microarrays that contain 45,000 probe sets representing 34,000 mouse genes. Three-way analysis of gene expression in untreated-non-diabetic mice, overtly diabetic mice, and those cured by TSA treatment yielded 164 differentially regulated genes, filtered by an ANOVA p-value, 0.05. These highly regulated genes were used for hierarchical clustering. Microarray data sets were deposited at Gene Expression Omnibus (accession no. GSE 26461) (Jayaraman, et al. (2013) PLoS One 8:e55074).
# Principal component analysis validated the up-regulation of a set of pro-inflammatory genes in uninduced spleens of overtly diabetic mice, and their repression by TSA treatment. This analysis clearly distinguished the genes that may be responsible for T1D manifestation and therefore of significant impact on the diagnosis of T1D in humans (Jayaraman, et al. (2013) PLoS One 8:e55074).
# [4] = test system: islets of Langerhans; conditions: TSA treatment; cited from earlier work
# [5] = test system: islets; experiment: Confocal imaging of inflammatory cell infiltration in pancreatic sections; type: in vivo; conditions: drug-treated and cured mice
# Protocol: To visualize the effect of TSA treatment on the infiltration of inflammatory cells in the pancreas, paraffin-embedded pancreatic sections were treated with antibodies against insulin, Ly6C+ macrophages and Ly6G+ neutrophils. Sections were then imaged on a confocal microscope and the images analyzed. Both Ly6C+ macrophages and Ly6G+ neutrophils were evident in the islets of diabetic mice, as identified by co-staining with an anti-insulin antibody. In contrast, both Ly6C+ macrophages and Ly6G+ neutrophils were absent in the islets of drug-treated and cured mice. […] Treatment with TSA effectively eradicated the infiltration of inflammatory cells and thereby provides protection against T1D in the mouse model.
# [6] = test system: NOD mice; conditions: injection; cited from earlier work
# [7] = test system: inflammatory genes such as Cela3b, Cpb1, Pnlip and Cel; experiment: Quantitative real time-PCR of selected top hit genes; type: in vivo, mice
# Source text: Expression levels of selected top hit genes were verified in spleens by quantitative real time-PCR using primer sets that were validated following MIQE guidelines and RNA derived from spleens of mice that were different from those used for microarray analysis. The expression of inflammatory genes such as Cela3b (elastase 3), Cpb1 (carboxyepetidase B1), Pnlip (pancreatic lipase) and Cel (carboxyl ester lipase) was prominent in the spleens of diabetic mice. […] However, Ctrl (chymotrypsin-like) gene substantially over-expressed in the exocrine pancreas was not repressed by TSA treatment, indicating the selectivity of gene regulation by chromatin remodeling in the pancreata. In addition, the mRNA levels of Pnliprp-1 (pancreatic lipase-related protein 1), Pnlilrp-2, Ctrl, Ctrc and Cpa1 were not altered by TSA treatment.
# [8] = test system: NOD mice; experiment: Development of T1D in genetically susceptible NOD mice; type: in vivo; conditions: NOD mice injected before clinical onset, starting between 18 and 24 weeks of age
# [9] = test system: spleen cells; experiment: Flow cytometry of innate immune cell frequency in spleen; type: in vivo, mice
# Protocol: Insulin-producing beta cells can be destroyed by the inflammatory cells and the pro-inflammatory genes that were identified by microarray analysis and further validated by quantitative RT-PCR. Therefore, it was determined whether amelioration of T1D by TSA treatment involves alteration in the frequency of innate immune cells that are likely to express the Cela3b gene. Therefore, T1D susceptible NOD mice were injected with TSA before the clinical onset of diabetes, starting between 18 and 24 weeks of age, and spleen cells were stained with fluorochrome-labeled antibodies and analyzed by flow cytometry. The numbers of both macrophages of the CD11b+Ly6C+ phenotype and neutrophils expressing CD11b+Ly6G+ determinants, known to exert inflammatory responses and tissue damage, increased in the spleen of overtly diabetic mice when compared to prediabetic mice.
# [10] = drug administration in mice; cited from earlier work
compound,measurement,setting,value
"CC(/C=C/C(=O)NO)=C\[C@@H](C)C(=O)c1ccc(N(C)C)cc1 [TSA, Trichostatin A]",numbers of Ly6G+ neutrophils co-expressing elastase protein,[1]; spleens of TSA treated and cured mice,diminished
same,numbers of Ly6C+ macrophages that contained elastase in the cytoplasm,[1]; spleens of cured versus diabetic mice,significantly lower numbers
same,expression of the elastase gene,[2]; peripheral lymphoid organ spleen,significantly lowered
same,expression of the elastase gene,[2]; target organ pancreas,significantly lowered
same,set of genes (n=17) over-expressed in spleens of acutely diabetic mice,"[3]; microarray, spleens",repressed
same,"expression of lipases Pnliprp1, Pnliprp2, Cel and Pnilp functionally related to Cela3b",[3]; regulated along with Cela3b,downregulated
same,beta cells producing insulin,[4],preservation of the beta cells
same,inflammation surrounding the islets of Langerhans,[4],eradication of inflammation surrounding the islets of Langerhans
same,Ly6C+ macrophages in the islets,[5],absent
same,Ly6G+ neutrophils in the islets,[5],absent
same,development of T1D,[6],prevents the development of T1D
same,Ctrl (chymotrypsin-like) gene expression,"[7]; over-expressed in the exocrine pancreas, pancreata",not repressed
same,mRNA level of Cpa1,[7]; qRT-PCR,not altered
same,mRNA level of Ctrc,[7]; qRT-PCR,not altered
same,mRNA level of Ctrl,[7]; qRT-PCR,not altered
same,mRNA level of Pnlilrp-2,[7]; qRT-PCR,not altered
same,mRNA level of Pnliprp-1 (pancreatic lipase-related protein 1),[7]; qRT-PCR,not altered
same,expression level of Cel (carboxyl ester lipase),"[7]; qRT-PCR, spleens",reduced the expression levels of these genes substantially
same,expression level of Cela3b (elastase 3),"[7]; qRT-PCR, spleens",reduced the expression levels of these genes substantially
same,expression level of Cpb1 (carboxyepetidase B1),"[7]; qRT-PCR, spleens",reduced the expression levels of these genes substantially
same,expression level of Pnlip (pancreatic lipase),"[7]; qRT-PCR, spleens",reduced the expression levels of these genes substantially
same,diabetes,[8],ameliorated diabetes
same,frequency of CD11b+F4/80+ macrophages,"[9]; spleen, flow cytometry",did not affect the frequency
same,frequency of CD11b+Ly6C+ macrophages,"[9]; spleen, flow cytometry",reduced the frequency
same,frequency of CD11b+Ly6G+ neutrophils,"[9]; spleen, flow cytometry",reduced the frequency
same,numbers of dendritic cells expressing CD11c determinant,"[9]; spleens, versus prediabetic and diabetic mice","Essentially, the same numbers"
same,side effects or gross pathological changes,[10],did not result in obvious side effects or gross pathological changes
